From ChEMBL document CHEMBL5696442, “Discovery of type II inhibitors of TGFβ-activated kinase 1 (TAK1) and mitogen-activated protein kinase kinase kinase kinase 2 (MAP4K2)” (J Med Chem, 2015) come the findings set out here.

Calls of active or inactive are those of the source. The rule behind the calls is not given here.

For test [1], the target named is Tyrosine-protein kinase Blk (Homo sapiens) (UniProt P51451). In words: Inhibition of BLK (unknown origin) at 1 uM by Ambit Kinomescan binding assay relative to control; values are per cent of control.
In test [2] the target is Glycogen synthase kinase-3 beta (Homo sapiens) (UniProt P49841). In words: Inhibition of GSK3B Lys2 labeling site in human A-375 cells at 5 uM by KiNativ Profiling analysis relative to control. In kind it is cell-based.
The target in test [3] is Mitogen-activated protein kinase kinase kinase 12 (Homo sapiens) (UniProt Q12852). The test can be described thus: Inhibition of DLK Lys2 labeling site harbouring in human A-375 cells at 0.05 uM by KiNativ Profiling analysis relative to control.
Test [4] concerns the target Activin receptor type-1 (Homo sapiens) (UniProt Q04771). The test can be described thus: Inhibition of ACVR1 (unknown origin) at 1 uM by Ambit Kinomescan binding assay relative to control.
Test [5] has as its target Serine/threonine-protein kinase 4 (Homo sapiens) (UniProt Q13043). In words: Inhibition of MST1 Lys1 labeling site harbouring ETGQIVAIKQVPVESDLQEIIK in human A-375 cells at 5 uM by KiNativ Profiling analysis relative to control.
The target of test [6] is T1, Mitogen-activated protein kinase 13 (Homo sapiens) (UniProt O15264).
T1 sequence (whole entry): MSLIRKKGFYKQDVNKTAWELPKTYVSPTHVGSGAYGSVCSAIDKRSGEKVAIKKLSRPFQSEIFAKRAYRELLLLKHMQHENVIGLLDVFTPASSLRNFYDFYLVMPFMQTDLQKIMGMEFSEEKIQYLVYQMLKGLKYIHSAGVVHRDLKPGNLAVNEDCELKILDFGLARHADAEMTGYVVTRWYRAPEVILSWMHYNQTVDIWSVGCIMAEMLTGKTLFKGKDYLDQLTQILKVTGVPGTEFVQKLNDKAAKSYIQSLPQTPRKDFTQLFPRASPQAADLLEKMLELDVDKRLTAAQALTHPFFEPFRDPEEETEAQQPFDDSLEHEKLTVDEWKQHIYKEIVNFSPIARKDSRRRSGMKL
The test can be described thus: Inhibition of p38delta (unknown origin) at 10 uM by Ambit Kinomescan binding assay relative to control; values are per cent of control.

In test [7] the target is Serine/threonine-protein kinase Chk2 (Homo sapiens) (UniProt O96017). The test can be described thus: Inhibition of CHEK2 (unknown origin) at 10 uM by Ambit Kinomescan binding assay.
Test [8] concerns the target T2, Serine/threonine-protein kinase Sgk3 (Homo sapiens) (UniProt Q96BR1).
T2 sequence (whole entry): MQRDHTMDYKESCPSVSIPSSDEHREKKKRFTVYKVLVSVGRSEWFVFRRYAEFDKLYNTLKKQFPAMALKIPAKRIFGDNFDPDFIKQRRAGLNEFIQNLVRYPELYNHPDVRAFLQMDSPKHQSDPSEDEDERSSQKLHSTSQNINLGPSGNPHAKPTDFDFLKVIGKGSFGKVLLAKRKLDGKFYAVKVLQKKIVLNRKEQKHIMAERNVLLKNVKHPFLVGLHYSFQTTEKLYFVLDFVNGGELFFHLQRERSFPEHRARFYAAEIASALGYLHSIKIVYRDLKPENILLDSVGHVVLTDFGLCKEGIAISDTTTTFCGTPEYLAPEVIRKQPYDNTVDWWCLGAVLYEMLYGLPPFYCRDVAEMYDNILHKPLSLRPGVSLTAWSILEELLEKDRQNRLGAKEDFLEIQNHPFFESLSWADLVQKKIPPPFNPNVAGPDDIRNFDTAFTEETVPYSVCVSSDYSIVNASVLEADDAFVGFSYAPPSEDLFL
In words: Inhibition of SGK3 Lys1 labeling site in human A-375 cells at 0.5 uM by KiNativ Profiling analysis relative to control. Format: cell-based.

For test [9], the target named is Focal adhesion kinase 1 (Homo sapiens) (UniProt Q05397). The test can be described thus: Inhibition of FAK K1 labeling site in human Huh-7 cells at 1 uM by KiNativ Profiling analysis relative to control. In kind it is cell-based.
Test [10] deals with T3, Dual specificity mitogen-activated protein kinase kinase 4 (Homo sapiens) (UniProt P45985).
T3 sequence (whole entry): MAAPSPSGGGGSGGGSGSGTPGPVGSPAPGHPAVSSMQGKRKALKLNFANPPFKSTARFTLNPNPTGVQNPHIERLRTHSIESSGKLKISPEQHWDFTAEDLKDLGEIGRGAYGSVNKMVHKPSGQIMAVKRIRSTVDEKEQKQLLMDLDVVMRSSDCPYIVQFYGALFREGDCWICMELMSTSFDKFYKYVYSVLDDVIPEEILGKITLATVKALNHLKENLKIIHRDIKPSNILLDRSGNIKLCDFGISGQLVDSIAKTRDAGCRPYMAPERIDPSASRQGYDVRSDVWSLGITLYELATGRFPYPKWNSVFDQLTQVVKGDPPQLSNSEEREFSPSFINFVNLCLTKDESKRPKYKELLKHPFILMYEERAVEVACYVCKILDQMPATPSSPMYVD
The test can be described thus: Inhibition of MAP2K4 K2 labeling site harbouring DIKPSNILLDR in human Huh-7 cells at 10 uM by KiNativ Profiling analysis relative to control. In kind it is cell-based.

The target of test [11] is Serine/threonine-protein kinase 4 (Homo sapiens) (UniProt Q13043). In words: Inhibition of MST1 Lys2 labeling site harbouring IHRDIKAGNILLNTEGHAK in human Huh-7 cell lysate at 1 uM by KiNativ Profiling analysis relative to control.
Serine/threonine-protein kinase 4 (Homo sapiens), sequence (Q13043 whole entry, looked up): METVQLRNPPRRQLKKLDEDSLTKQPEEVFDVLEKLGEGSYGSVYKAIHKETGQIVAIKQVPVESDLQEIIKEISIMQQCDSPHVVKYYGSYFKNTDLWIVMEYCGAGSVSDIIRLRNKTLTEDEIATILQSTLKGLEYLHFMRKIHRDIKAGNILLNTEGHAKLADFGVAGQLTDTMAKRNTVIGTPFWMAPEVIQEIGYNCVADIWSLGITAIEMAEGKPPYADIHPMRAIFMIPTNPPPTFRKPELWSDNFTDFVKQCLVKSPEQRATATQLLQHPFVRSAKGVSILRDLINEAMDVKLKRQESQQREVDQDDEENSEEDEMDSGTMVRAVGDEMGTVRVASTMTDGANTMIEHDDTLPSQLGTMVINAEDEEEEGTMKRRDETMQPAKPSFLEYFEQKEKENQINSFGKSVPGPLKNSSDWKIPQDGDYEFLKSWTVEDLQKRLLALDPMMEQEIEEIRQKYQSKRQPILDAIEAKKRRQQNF

Activin receptor type-1 (Homo sapiens), sequence (Q04771 whole entry): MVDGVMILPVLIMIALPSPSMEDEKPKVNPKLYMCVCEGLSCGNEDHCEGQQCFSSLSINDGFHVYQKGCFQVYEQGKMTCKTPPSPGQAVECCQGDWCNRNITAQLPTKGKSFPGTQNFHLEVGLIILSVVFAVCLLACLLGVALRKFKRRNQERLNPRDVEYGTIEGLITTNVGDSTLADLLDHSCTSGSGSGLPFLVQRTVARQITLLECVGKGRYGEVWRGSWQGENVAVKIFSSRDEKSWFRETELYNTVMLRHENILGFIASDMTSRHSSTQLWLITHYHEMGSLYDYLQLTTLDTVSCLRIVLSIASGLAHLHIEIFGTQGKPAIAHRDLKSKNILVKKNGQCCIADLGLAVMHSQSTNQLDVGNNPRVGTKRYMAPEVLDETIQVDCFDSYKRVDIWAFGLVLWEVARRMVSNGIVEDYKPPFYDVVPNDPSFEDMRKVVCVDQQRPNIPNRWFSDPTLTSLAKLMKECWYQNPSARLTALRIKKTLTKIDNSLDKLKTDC
Serine/threonine-protein kinase Chk2 (Homo sapiens), sequence (O96017 whole entry): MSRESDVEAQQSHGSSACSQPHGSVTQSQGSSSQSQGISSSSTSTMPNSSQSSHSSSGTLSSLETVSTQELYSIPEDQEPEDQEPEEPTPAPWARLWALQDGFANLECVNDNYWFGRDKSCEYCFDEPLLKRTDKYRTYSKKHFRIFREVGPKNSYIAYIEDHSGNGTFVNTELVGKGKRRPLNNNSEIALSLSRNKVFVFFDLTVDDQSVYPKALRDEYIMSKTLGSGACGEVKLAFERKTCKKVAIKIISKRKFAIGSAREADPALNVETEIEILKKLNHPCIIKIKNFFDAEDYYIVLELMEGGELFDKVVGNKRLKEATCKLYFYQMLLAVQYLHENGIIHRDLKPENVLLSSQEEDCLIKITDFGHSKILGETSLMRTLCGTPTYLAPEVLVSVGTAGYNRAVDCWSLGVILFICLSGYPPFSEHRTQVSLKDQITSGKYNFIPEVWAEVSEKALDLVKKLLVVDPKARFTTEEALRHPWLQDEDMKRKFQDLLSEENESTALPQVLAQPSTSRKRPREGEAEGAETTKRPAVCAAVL
Glycogen synthase kinase-3 beta (Homo sapiens), sequence (P49841 whole entry, looked up): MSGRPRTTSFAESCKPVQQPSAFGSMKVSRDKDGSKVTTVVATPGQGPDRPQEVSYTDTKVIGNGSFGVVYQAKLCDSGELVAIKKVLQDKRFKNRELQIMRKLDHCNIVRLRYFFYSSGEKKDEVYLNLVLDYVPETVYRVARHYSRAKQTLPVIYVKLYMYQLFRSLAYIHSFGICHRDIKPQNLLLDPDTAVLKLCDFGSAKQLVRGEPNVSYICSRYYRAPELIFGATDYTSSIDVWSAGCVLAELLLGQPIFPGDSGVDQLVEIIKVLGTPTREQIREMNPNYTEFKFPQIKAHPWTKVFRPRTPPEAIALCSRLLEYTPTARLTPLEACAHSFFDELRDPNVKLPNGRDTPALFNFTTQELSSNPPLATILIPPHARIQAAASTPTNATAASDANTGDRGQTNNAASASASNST
Tyrosine-protein kinase Blk (Homo sapiens), sequence (P51451 2-505 limits assumed): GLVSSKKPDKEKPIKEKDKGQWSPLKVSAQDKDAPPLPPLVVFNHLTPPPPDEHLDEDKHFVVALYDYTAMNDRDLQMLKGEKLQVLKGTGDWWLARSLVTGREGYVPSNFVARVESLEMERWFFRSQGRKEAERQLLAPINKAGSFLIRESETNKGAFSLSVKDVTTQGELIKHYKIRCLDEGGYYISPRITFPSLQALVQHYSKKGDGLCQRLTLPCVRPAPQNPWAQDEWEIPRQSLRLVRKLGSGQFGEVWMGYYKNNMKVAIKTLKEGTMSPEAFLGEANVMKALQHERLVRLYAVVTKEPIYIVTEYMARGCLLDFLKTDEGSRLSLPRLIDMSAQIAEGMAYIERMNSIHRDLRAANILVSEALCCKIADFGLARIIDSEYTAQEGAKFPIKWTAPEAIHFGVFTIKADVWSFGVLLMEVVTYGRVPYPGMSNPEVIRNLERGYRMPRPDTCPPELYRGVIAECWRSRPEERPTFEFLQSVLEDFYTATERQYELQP
Focal adhesion kinase 1 (Homo sapiens), sequence (Q05397 2-1052 limits assumed): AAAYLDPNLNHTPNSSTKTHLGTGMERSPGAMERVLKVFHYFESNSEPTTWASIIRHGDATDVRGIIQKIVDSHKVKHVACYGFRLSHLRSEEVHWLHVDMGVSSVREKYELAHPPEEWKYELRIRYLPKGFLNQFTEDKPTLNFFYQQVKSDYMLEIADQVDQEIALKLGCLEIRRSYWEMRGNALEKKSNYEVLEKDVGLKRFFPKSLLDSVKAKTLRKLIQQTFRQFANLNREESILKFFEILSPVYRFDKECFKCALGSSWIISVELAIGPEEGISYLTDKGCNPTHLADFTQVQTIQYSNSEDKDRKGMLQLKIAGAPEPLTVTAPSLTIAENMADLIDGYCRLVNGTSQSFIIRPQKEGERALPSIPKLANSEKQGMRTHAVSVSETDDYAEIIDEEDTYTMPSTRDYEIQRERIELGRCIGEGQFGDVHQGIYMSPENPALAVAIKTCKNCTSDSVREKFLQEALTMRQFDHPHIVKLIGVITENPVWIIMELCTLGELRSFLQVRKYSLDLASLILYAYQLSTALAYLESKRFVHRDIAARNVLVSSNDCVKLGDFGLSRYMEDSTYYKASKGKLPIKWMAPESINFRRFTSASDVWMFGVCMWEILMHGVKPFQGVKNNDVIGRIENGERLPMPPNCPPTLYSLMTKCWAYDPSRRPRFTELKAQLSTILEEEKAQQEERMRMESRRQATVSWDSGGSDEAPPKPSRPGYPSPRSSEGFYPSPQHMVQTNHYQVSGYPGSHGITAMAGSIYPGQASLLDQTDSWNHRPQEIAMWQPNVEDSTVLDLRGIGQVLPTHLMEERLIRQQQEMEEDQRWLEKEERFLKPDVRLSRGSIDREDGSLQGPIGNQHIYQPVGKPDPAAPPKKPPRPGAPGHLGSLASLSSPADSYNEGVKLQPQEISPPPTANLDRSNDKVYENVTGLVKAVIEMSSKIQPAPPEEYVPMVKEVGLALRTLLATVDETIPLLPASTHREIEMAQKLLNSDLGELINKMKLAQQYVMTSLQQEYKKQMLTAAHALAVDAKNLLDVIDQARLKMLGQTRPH
Mitogen-activated protein kinase kinase kinase 12 (Homo sapiens), sequence (Q12852 whole entry, looked up): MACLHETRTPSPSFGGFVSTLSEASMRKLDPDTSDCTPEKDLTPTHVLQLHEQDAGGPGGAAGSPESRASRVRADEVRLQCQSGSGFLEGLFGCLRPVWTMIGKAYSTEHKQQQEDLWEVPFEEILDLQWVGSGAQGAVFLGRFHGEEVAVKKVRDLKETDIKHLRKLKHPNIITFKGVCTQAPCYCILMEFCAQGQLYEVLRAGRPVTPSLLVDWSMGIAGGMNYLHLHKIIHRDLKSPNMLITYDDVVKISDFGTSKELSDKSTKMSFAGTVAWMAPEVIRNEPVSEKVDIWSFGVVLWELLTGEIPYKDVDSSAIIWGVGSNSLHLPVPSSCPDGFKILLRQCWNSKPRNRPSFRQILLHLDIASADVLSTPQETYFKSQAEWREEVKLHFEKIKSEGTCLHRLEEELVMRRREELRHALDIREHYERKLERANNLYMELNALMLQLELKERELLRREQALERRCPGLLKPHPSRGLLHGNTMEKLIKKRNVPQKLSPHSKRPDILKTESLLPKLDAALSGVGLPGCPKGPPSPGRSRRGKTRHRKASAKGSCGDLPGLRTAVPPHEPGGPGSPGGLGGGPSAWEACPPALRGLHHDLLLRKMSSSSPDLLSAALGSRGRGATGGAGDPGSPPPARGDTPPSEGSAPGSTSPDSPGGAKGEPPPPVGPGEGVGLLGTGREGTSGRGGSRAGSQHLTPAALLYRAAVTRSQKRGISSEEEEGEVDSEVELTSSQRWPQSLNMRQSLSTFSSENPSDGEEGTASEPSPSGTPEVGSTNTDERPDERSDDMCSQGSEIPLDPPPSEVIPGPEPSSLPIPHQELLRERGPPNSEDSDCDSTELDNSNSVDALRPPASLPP

For the compound `CCN1CCN(Cc2ccc(NC(=O)c3ccc(C)c(/C=C/c4cnc5[nH]ccc5c4OC)c3)cc2C(F)(F)F)CC1`, in test [1], the residual activity is 0.25%. In addition, the inhibition in test [2] came to 34.6%; in test [3], 9%; in [4], 100%; in test [5], 27.6%.

`CCN1CCN(Cc2ccc(NC(=O)c3ccc(C)c(Oc4ccnc5[nH]ccc45)c3)cc2C(F)(F)F)CC1`: the percent of control in test [6] was 0.55%. The inhibition result in test [7] is “inactive”. The inhibition in [8] is -9.6%; in test [9], 32%; in test [10], -4.6%.

As for `CNc1cc(Oc2cc(C(=O)Nc3cc(N4CCN(C)CC4)cc(C(F)(F)F)c3)ccc2C)ncn1`, in test [11], the inhibition stood at 14.4%.

The term residual activity denotes the share of the control activity or signal that is left under treatment. As a reminder, the inhibition is the relative decrease from the control value, in per cent.
